# “Also recorded” adds a separate entry of the source.
# How the values were obtained:
# [1] = system: periostin secretion by keratinocytes; assay: Periostin secretion by keratinocytes in response to histamine; format: cell-based
# Source text: As detailed in the Examples, secretion of periostin (93 kDa protein) by keratinocytes in response to histamine exposure is dependent on TRPV4. […] Periostin has a role in chronic allergic skin inflammation and also pathologic-fibrotic remodeling of the skin. Histamine activates TRPV4 channels via specific activation of histamine H1R-receptors in keratinocytes. This TRPV4-dependent calcium influx regulates release of periostin from keratinocytes. In terms of fibrotic tissue remodeling of organs, TRPV4 channels expressed by fibroblasts may have a role in lung fibrosis evoked by bleomycin, which may relate to fibroblasts elsewhere, including skin fibroblasts and synovial fibroblasts. Inhibitors as detailed herein may potently block TRPV4 activation in keratinocytes and also skin fibroblasts. Based on the above signaling mechanisms, this will attenuate and prevent fibrotic responses in the skin, also chronic skin-remodeling tissue responses mediated by endogenous pathogenetic mediator molecules such as periostin. As for synovia of the joint, one response to joint trauma is development of synovial fibrosis and contracture. Synoviocytes, synovial fibroblasts and infiltrating inflammatory cells may have roles in this maladaptive response, as all of these cells are known to express TRPV4. […]
# [2] = biological target: TRPV4 (Homo sapiens, UniProt Q9HBA0); assay: UVB-evoked Ca++ transient in TRPV4-transfected HEK293T cells; format: cell-based; parameters: expressed in transfected cells; host or cells: HEK293T cells; settings: pre-exposure to 20 μM GSK205
# TRPV4, sequence (Q9HBA0 whole entry, species assumed): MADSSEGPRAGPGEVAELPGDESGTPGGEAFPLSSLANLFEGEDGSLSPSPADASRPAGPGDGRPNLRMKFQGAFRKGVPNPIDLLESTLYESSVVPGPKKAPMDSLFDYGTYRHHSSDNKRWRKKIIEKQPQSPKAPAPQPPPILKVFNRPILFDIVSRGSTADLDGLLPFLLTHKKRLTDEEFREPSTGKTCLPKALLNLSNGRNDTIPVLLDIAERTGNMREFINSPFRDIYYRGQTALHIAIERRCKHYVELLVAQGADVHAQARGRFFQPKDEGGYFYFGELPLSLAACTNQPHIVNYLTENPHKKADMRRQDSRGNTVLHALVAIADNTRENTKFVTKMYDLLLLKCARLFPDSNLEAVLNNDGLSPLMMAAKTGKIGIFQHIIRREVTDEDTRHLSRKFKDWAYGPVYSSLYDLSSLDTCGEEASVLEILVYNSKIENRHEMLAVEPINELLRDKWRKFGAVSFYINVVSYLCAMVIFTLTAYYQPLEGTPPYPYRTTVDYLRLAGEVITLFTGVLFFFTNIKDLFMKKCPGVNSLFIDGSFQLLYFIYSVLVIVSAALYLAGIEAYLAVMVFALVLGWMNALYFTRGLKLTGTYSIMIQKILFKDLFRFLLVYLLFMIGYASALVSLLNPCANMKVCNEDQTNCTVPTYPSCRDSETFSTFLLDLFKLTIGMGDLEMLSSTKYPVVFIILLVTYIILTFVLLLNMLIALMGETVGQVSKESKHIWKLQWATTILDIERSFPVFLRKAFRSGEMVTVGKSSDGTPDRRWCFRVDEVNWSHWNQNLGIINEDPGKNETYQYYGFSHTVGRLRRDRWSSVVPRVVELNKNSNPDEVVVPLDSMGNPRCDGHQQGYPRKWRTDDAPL
# Source text: (B) Focusing properties of the ball lens. […] (E) TRPV3 activation experiment. […] (F) TRPV4 selective activator GSK101-related findings.
# To assess whether TRPV4 is sufficient for the UVB-evoked Ca++ influx, we introduced high levels of TRPV4 into HEK293 epithelial cells. TRPV4 expression endowed these cells with the ability to generate robust Ca++ signaling in response to UVB (FIG. 2G). Moreover, if they were pre-exposed to GSK205, the response was blocked. Thus, heterologous TRPV4 expression is sufficient for UVB radiation to cause a cellular Ca++ transient.
# [3] = system: mice; assay: UVB-evoked nocifensive behavior after topical GSK205 (Hargreaves' test, von Frey hair); format: in vivo, mouse
# Procedure: A viscous solution of 68% EtOH/5% glycerol plus 1 mM or 5 mM GSK205 (none for control) was applied to hindpaws by rubbing in 20 μL, applied at time-points 1 hour and again 10 min before UV exposure.
# Behavioral tests were performed to evaluate the decrease in withdrawal thresholds in response to mechanical or thermal stimuli applied to hind paws. These withdrawal thresholds were ascertained before and after UVB exposure. Mice were confined by plexi-glass enclosures on top of 25×26 cm Bio Rad Gel Doc 2000 UV transilluminator (302 nm), and otherwise allowed to openly explore this environment. UV-exposure lasted for 5 minutes with an exposure of 600 mJ/cm^2.
# Hindpaw mechanical withdrawal thresholds were determined by the automated von Frey hair method, using a 0.5 mm diameter stainless steel filament, part of an automated plantar touch stimulator (Ugo Basile, Modena, Italy). Relevant detail included pre-test acclimatization in a quiet room for 30 min, conducting the test at the same time of day and blinded observers. The stimulus was delivered to the hindpaw, automatically discontinued upon withdrawal, and its intensity recorded automatically. 6-8 trials per animal were conducted, with equal exposure of both hindpaws, leading to an average withdrawal threshold. Results are reported as Δ-threshold, which was calculated by subtracting post-treatment from pre-treatment measurements, expressed as % or relative to 1.0.
# Hindpaw thermal (hot) withdrawal thresholds were determined by the well-established Hargreaves' method, using an infra-red thermal stimulation device that delivers the stimulus from underneath the hindpaw combined with automatic shut-off upon withdrawal (Ugo Basile). Stimulation and measurements were conducted as described for von Frey hair testing. A cutoff of 20 sec was set to prevent tissue damage.
# In view of the observed impact of epidermal-specific TRPV4-deficiency on mouse nociception in response to UVB, and because of the unambiguous effects of selective TRPV4 blockers on 1° MK in vitro, we tested the possible clinical relevance of our findings. For this purpose, we topically applied TRPV4 inhibitor GSK205 to WT mouse skin and subsequently exposed animals to UVB (FIG. 12A).
compound,measurement,setting,value
CN(CCc1ccc(Nc2nc(-c3cccnc3)cs2)cc1)Cc1ccccc1 [GSK205],secretion of periostin by histamine-stimulated keratinocytes,[1],completely eliminated
same,UVB-evoked Ca++ signal in TRPV4-transfected HEK293T cells,[2],blocked; also recorded: virtually eliminates
same,delay in thermal sensitivity after UVB,"[3]; topical 1 mM GSK205, Hargreaves' test",~24 h
same,sensitivity to von Frey hair mechanical stimulation after UVB,[3]; topical 5 mM GSK205,significantly reduced sensitivity
same,thermally-evoked nocifensive behavior (thermal allodynia) after UVB,"[3]; topical 5 mM GSK205, Hargreaves' test, 48 hours post-UVB",sustained attenuation; also recorded: significant attenuation of thermal allodynia
same,nocifensive behavior after UVB in Trpv4−/− mice (off-target effects),"[3]; topical 5 mM GSK205 vs. vehicle, Trpv4−/− mice",did not show any inter-group differences; also recorded: lack of off-target effects
